Data taken from US7892767B2, “Phosphospecific chemokine receptor antibodies” (Washington University in St. Louis, priority 2005, dated 2011).

Tests used:
cortical astrocytes = experiment: Intracellular cAMP by ELISA, primary cortical astrocytes; assay type: cell-based, mouse; details: 1 μg/ml CXCL12
Method: Primary astrocyte cultures. Primary astrocytes were cultured from 1 to 3-day-old BALB/C mice as described (57). The cortices were triturated into single cells in minimal essential medium (Invitrogen) containing 10% FCS, and then plated onto 75 cm^2 T-flasks (0.5 hemisphere/flask) for 10-14 days. Astrocytes were prepared by vigorous shaking of T-flasks overnight, removal of non-adherent cells, and isolation of the remaining adherent cells, with 0.1% trypsin.
(§1) Growth factor and drug treatment. Following serum-starvation for 24 hours, astrocytes, granule cells, U87 cells and Daoy cells, were treated with 1 μg/ml CXCL12 (PeproTech), […] AMD3465 (kind gift from Simon Fricker, AnorMED, Langley, BC, Canada) (200 μM Rolipram (Sigma), or 10 μM Forskolin (Sigma) as indicated.
Determination of cAMP concentration. Competitive immunoassay for cAMP concentration was performed exactly as directed by the manufacturer. Absorbance at 405 nm was measured and cAMP concentrations were determined by calculation based on a standard curve. Protein concentrations were measured by colormetric assay (Bio-Rad, Hercules, Calif.) according to the manufacturer's directions. cAMP values were normalized to protein for each sample individually.

Nf1−/− astrocytes = experiment: Cell cycle analysis by flow cytometry, Nf1−/− astrocytes; assay type: cell-based, mouse; details: CXCL12 0.1 μg/ml
Method: Cell Cycle Analysis. Ethanol fixed cells were washed in PBS and resuspended in PI staining solution containing 0.1% Triton-X-100, 0.2 mg/ml RNase A, and 20 ug/ml Propidium Iodide in PBS. The cells were incubated for 15 minutes at 37° C., in the dark. Flow Cytometry was performed on a FACSCalibur system (Becton Dickinson, San Jose, Calif.) Data were analyzed using CellQuest software (Becton Dickinson, San Jose, Calif.). Aggregates and debris were excluded from the analysis.
The basis for the in vitro growth effects of CXCL12 was further evaluated by cell cycle analysis of asynchronously growing cultures of Nf1+/+ and Nf1−/− astrocytes in the presence and absence of CXCL12. In agreement with measurements of cell number, 15% more Nf1−/− astrocytes were in the S+G2M fraction of the cell cycle compared to Nf1+/+ astrocytes (P<0.005, data not shown). This decrease in Nf1+/+ cell number in response to CXCL12 was the result of both a 6% decrease in proliferation (S+G2-M) and a 38+/−8% increase in apoptosis (sub-G0). The increase in Nf1−/− cell number was the result of a 27+/−12% decline in apoptosis alone (FIG. 9C).

GPCs = experiment: Cell number by trypan blue exclusion, primary GPCs; assay type: cell-based, mouse; details: CXCL12 1 μg/ml, 24 hours
Method: Primary granule neuron cultures. Primary cultures of purified GPCs were prepared from 6 day-old BALB/C mice as described (58). Cerebella were dissected and meninges were removed. After incubation with 0.1% trypsin (Sigma) in HBSS with 125 units/ml Dnase (Sigma), 0.5 mM EDTA for 20 minutes at 37° C., cells were pelleted and washed three times with HBSS. The final cell suspension was passed through a […] nylon mesh cell strainer (Falcon, Franklin Lakes, Mich.). Cells were diluted to 2×10^6 cells/ml in DMEM/F12 (Gibco BRL, Gaithersburg, Md.) supplemented with N2 (Gibco BRL), 20 mM KCl, and 36 mM glucose.
as §1

CXCR4 = molecular target: T1, CXCR4 (Mus musculus, UniProt P70658); experiment: CXCL12-induced CXCR4 phosphorylation (pCXCR4 western blot), Nf1−/− astrocytes; assay type: cell-based; details: CXCL12 0.1 μg/ml, at 5 minutes
T1 construct: endogenous in cells; host or cells: primary mouse astrocytes (Nf1 flox/flox, infected with Ad-LacZ or Ad-Cre)
Method: Western Blot Analysis. Whole-cell extracts were obtained by lysing cells with lysis buffer (20 mM Tris pH 7.4, 137 mM NaCl, 10% Glycerol and 1% Triton-X-100) supplemented with phosphatase inhibitor cocktail set II (Calbiochem, La Jolla, Calif.), PMSF (1 mM), leupeptin, (0.005 mg/ml) and aprotinin (0.005 mg/ml). The proteins were resolved with 10% Bis-Tris gels (Invitrogen) and transferred onto the nitrocellulose membrane Hybond ECL (Amersham, Piscataway, N.J.) according to standard protocols. Membranes were incubated with polyclonal antibodies CXCR4 (1:500), pErk½ (1:1200), pan Erk½ (1:150), pAkt (1:500), pan Akt (1:1000), pGRK2 (1:250), and pCXCR4 (1:200) overnight at 4° C. This was followed by incubation with horseradish peroxidase-conjugated secondary antibody (1:15,000; Bio-Rad). Peroxide activity was detected using the enhanced chemiluminescence Supersignal West Dura system (Pierce, Rockford, Ill.) Mouse anti-actin antibody was used as a loading control. Quantitation of western blots was performed by densitometry using Image J software from the NIH.
Among the primary mechanisms for controlling GPCR effects on cAMP production is receptor desensitization (140). This process is initiated when ligand occupied GPCR (e.g., CXCR4) is phosphorylated by G protein receptor kinase (GRK). […]

T1 sequence (P70658 whole entry): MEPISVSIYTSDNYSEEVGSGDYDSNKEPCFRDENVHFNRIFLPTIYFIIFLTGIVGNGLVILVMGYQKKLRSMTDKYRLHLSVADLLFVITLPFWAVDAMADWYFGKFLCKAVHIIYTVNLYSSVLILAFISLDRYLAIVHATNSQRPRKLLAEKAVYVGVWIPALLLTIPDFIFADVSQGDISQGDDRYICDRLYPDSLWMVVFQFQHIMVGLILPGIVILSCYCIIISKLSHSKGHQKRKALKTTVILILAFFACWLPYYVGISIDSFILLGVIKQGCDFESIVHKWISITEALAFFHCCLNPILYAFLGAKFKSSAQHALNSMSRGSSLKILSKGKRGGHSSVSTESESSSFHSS

decrease in pCXCR4 (CXCR4): 0.56+/−0.14 fold
Substance: CXCL12: chemokine ligand of CXCR4 (Peprotech)
cAMP, lower level of fluctuation (cortical astrocytes): 40 % of baseline
decline in apoptosis (sub-G0) (Nf1−/− astrocytes): 27+/−12%
effect on cell number (GPCs): no effect
